How the values were obtained:
[1] = test system: SHL and 3-hydroxybutyric acid dehydrogenase; test: Two-enzyme system: SHL and 3-hydroxybutyric acid dehydrogenase; type: biochemical; settings: Compound C 10 μM; substrate 3-hydroxybutyric acid
Protocol: (§1) ^1H NMR and ^13C NMR spectrums were obtained by Bruker AMX-500 spectrophotometer wherein chemical shift values were expressed in ppm relative to tetramethylsilane (δ unit); fluorescence intensity was measured by using a fluorescence-grade quartz cuvette and a spectrofluorometer, i.e. Horiba Jobin Yvon Fluoromax-4. The other chemicals are purchased from Acros, Aldrich, TCI or Sigma Chemical corporations and directly used without purification. […] Chem. Soc. Jp. 1985, 58, 731; the entire contents thereof are incorporated herein by reference. SHL is obtained from GDS Technology Inc. (USA). D-3-hydroxybutyric acid dehydrogenase is purchased from TOYOBO (Product Code: HBD-301). Cholesterol dehydrogenase is purchased from Genzyme Corp. All measurements were performed in 50 mM Tris-HCl (TRIZMA Base, Tris, pH8). The latent fluorophore is synthesized in DMSO and should be added to a Tris-HCl buffer before use to make the concentration of DMSO not exceed 0.1% (v/v). […]
(§2) The measurement of fluorescence was performed at an excitation wavelength λex of 500 nm and an emission wavelength λem of 595 nm. […] The measured fluorescence intensity after subtraction of baseline (concentration of the biochemical molecule to be tested is zero) intensity therefrom was plotted versus the concentration of the biochemical molecule to be tested.

[2] = molecular target: T1, Salicylate hydroxylase (SHL) (Pseudomonas putida, UniProt P23262); test: Fluorescence profile of the latent fluorophore in the presence of SHL and NADH, aerobic; type: biochemical
T1 construct: purchased GDS Technology Inc. (USA)
T1 sequence (P23262 1-434): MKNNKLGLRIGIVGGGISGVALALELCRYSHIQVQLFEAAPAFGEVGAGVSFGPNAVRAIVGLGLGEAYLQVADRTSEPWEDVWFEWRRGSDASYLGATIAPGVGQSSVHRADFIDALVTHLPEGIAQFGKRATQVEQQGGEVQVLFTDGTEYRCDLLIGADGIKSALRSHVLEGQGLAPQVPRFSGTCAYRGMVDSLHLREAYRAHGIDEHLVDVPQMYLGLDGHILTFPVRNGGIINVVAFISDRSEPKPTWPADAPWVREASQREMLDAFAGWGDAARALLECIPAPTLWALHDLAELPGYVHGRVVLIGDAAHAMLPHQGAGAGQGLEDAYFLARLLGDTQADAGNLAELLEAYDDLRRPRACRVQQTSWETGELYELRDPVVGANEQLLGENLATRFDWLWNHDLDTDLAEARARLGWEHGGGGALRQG
Protocol: (§3) ^1H NMR and ^13C NMR spectrums were obtained by Bruker AMX-500 spectrophotometer wherein chemical shift values were expressed in ppm relative to tetramethylsilane (δ unit); fluorescence intensity was measured by using a fluorescence-grade quartz cuvette and a spectrofluorometer, i.e. Horiba Jobin Yvon Fluoromax-4. The other chemicals are purchased from Acros, Aldrich, TCI or Sigma Chemical corporations and directly used without purification. […] Chem. Soc. Jp. 1985, 58, 731; the entire contents thereof are incorporated herein by reference. SHL is obtained from GDS Technology Inc. (USA). D-3-hydroxybutyric acid dehydrogenase is purchased from TOYOBO (Product Code: HBD-301). Cholesterol dehydrogenase is purchased from Genzyme Corp. All measurements were performed in 50 mM Tris-HCl (TRIZMA Base, Tris, pH8). The latent fluorophore is synthesized in DMSO and should be added to a Tris-HCl buffer before use to make the concentration of DMSO not exceed 0.1% (v/v).
(§4) The fluorescence profile of Compound C was analyzed in the presence of SHL and NADH in an aerobic environment. […] However, in case that Compound C was kept in a solution containing both 1 unit of SHL and 1 mM NADH at 37 °C, the fluorescence intensity of Compound B increases 57 times in 90 minutes, as shown in FIG. 1 (dotted line representing the baseline).

[3] = Latent fluorophore kept in SHL alone, NADH alone or Tris-HCl buffer (background fluorescence / stability); type: physicochemical; settings: 20 μM
Protocol: as §3, §4

[4] = test system: SHL and cholesterol dehydrogenase; test: Two-enzyme system: SHL and cholesterol dehydrogenase; type: biochemical; settings: Compound C 10 μM
Protocol: as §1, §2

[5] = cited from earlier work
[6] = molecular target: T1, Salicylate hydroxylase (SHL); test: Effect of salicylic acid on the fluorescence intensity (SHL, Compound C, NADH); type: biochemical; settings: salicylic acid added to SHL, Compound C and NADH, aerobic; fluorescence decreased with increasing concentration
Protocol: as §3

Compound	fluorescence intensity after addition of the substrate [1]	time until fluorescence could be detected ([2]; 1 unit SHL and 1 mM NADH added to Tris-HCl buffer containing Compound C)	increase of fluorescence intensity ([2]; Compound C in solution with 1 unit SHL and 1 mM NADH, 37 °C, in 90 minutes) [times]	fluorescence intensity, only SHL added ([2]; only SHL added to Tris-HCl buffer containing Compound C, after 10 minutes)	fluorescence intensity, kept in solution of NADH alone ([3]; kept even for several months)	fluorescence intensity, kept in solution of SHL alone ([3]; kept even for several months)	fluorescence intensity, kept in Tris-HCl buffer solution ([3]; pH 8, kept even for several months)	fluorescence intensity after addition of the substrate [4]	blood level that may be fatal [5]	conversion of Compound C to a fluorogenic compound [6]
N#Cc1c(-c2nc3ccccc3s2)c(=O)oc2cc(OCc3ccc(C(=O)O)c(O)c3)ccc12 [Compound C]	significantly increased	within several seconds	57	near the baseline	near the baseline	near the baseline	near the baseline	significantly increased		
O=C(O)c1ccccc1O [salicylic acid]									above 4.3 mM	inhibited
